Source: ChEMBL document CHEMBL1201862, “PubChem BioAssay data set” (2004)
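The compound was tested at five concentrations on cells cultured in 96-well plates, with a 48-hour exposure period. Abbreviation: GI50, concentration required for 50% inhibition of growth.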 Calls of active or inactive are those of the source. Rule as the data show it: active = GI50 up to about 1.1 µM and inactive = higher.

Key:
Experiment in all cases: growth of human tumour cells (NCI), 48 h
CAKI-1 = system: CAKI-1
KM12 = system: KM12
MCF7 = system: MCF7
MDA-MB-231 = system: MDA-MB-231
MDA-MB-435 = system: MDA-MB-435
Malme-3M = system: Malme-3M
OVCAR-8 = system: OVCAR-8
SN12C = system: SN12C
SNB-75 = system: SNB-75
SW-620 = system: SW-620
TK-10 = system: TK-10
UACC-257 = system: UACC-257
UACC-62 = system: UACC-62
A498 = system: A498
HL-60 = system: HL-60
Hs-578T = system: Hs-578T
K562 = system: K562
NCI-H460 = system: NCI-H460
RXF 393 = system: RXF 393
SF-295 = system: SF-295

Measured: GI50

CCOC(=O)CCCOc1cc(-c2ccccc2F)nc2cc3c(cc12)OCO3
inactive: CAKI-1 > 100 µM | KM12 61.9 µM | MCF7 > 100 µM | MDA-MB-231 > 100 µM | MDA-MB-435 53.6 µM | Malme-3M 74.1 µM | OVCAR-8 > 100 µM | SN12C > 100 µM | SNB-75 40.9 µM | SW-620 > 100 µM | TK-10 > 100 µM | UACC-257 70.3 µM | UACC-62 84.9 µM

CCOC(=O)CCC(C(=O)OCC)n1nnc2ccc(Nc3c(C)[n+]([O-])c4cc(F)c(OCC)cc4[n+]3[O-])cc21 (configuration not stated)
inactive: A498 > 100 µM | CAKI-1 66.1 µM | HL-60 36.8 µM | Hs-578T > 100 µM | K562 41.4 µM | KM12 80.4 µM | MCF7 22.5 µM | MDA-MB-435 42.9 µM | Malme-3M 35.6 µM | NCI-H460 60.3 µM | OVCAR-8 94.4 µM | RXF 393 41.8 µM | SF-295 77.4 µM | SN12C 45.4 µM | SNB-75 79.4 µM | SW-620 > 100 µM | TK-10 > 100 µM | UACC-257 21.2 µM | UACC-62 20.1 µM

O=C1/C(=C\c2cccc(Oc3ccccc3)c2)S(=O)(=O)C(c2ccccc2)N1c1ccc(Cl)cc1 (configuration not stated)
inactive: A498 34.4 µM | CAKI-1 13.2 µM | HL-60 13.2 µM | K562 10.6 µM | KM12 24 µM | MCF7 12.6 µM | MDA-MB-231 14.8 µM | MDA-MB-435 7.94 µM | Malme-3M 18.2 µM | NCI-H460 14.2 µM | OVCAR-8 16.9 µM | RXF 393 14.7 µM | SF-295 5.28 µM | SN12C 15.6 µM | SNB-75 30.4 µM | SW-620 16.7 µM | TK-10 92.3 µM | UACC-257 24 µM | UACC-62 7.82 µM

C=CCNc1ccc(C)cc1
inactive: A498 3.82 µM | Hs-578T > 100 µM | K562 > 100 µM | KM12 > 100 µM | MCF7 > 100 µM | MDA-MB-231 > 100 µM | MDA-MB-435 > 100 µM | NCI-H460 > 100 µM | OVCAR-8 > 100 µM | RXF 393 > 100 µM | SF-295 > 100 µM | SN12C > 100 µM | SNB-75 > 100 µM | SW-620 > 100 µM | TK-10 > 100 µM | UACC-257 > 100 µM

CO/C1=C\C(C)=C\C(C)C(O)C(C)C/C(C)=C/C=C/C(OC)C(C(C)C(O)C(C)C2(O)CC(O)C(C)C(C(C)C)O2)OC1=O (configuration not stated)
active: CAKI-1 0.00205 µM | HL-60 0.000134 µM | Hs-578T 0.011 µM | K562 0.00231 µM | KM12 0.000351 µM | MCF7 0.00371 µM | MDA-MB-231 0.000382 µM | MDA-MB-435 0.00198 µM | Malme-3M 0.0119 µM | NCI-H460 0.000401 µM | OVCAR-8 0.00164 µM | RXF 393 0.00526 µM | SF-295 0.00163 µM | SN12C 0.01 µM | SNB-75 0.00857 µM | SW-620 0.000471 µM | UACC-257 0.00634 µM | UACC-62 0.0028 µM
inactive: TK-10 14.5 µM

COc1ccc(C2=NNC(c3cc4cc(Br)ccc4nc3Cl)C2)cc1 (configuration not stated)
active: Hs-578T 0.0129 µM | SNB-75 0.0631 µM
inactive: A498 > 25 µM | CAKI-1 12.6 µM | HL-60 6.19 µM | K562 6.21 µM | KM12 22.9 µM | MCF7 6.67 µM | MDA-MB-435 7.16 µM | NCI-H460 10 µM | SN12C 7.66 µM | SW-620 10.9 µM | UACC-257 12.2 µM | UACC-62 22.6 µM

CC(=O)CCC[C@H](C)[C@@H](O)[C@@H]1O[C@H]([C@@]2(C)CCC(=O)O2)C[C@H]1C(=O)O
inactive: CAKI-1 > 100 µM | Hs-578T > 100 µM | K562 > 100 µM | KM12 > 100 µM | MCF7 > 100 µM | MDA-MB-231 > 100 µM | MDA-MB-435 > 100 µM | NCI-H460 > 100 µM | OVCAR-8 > 100 µM | RXF 393 > 100 µM | SF-295 > 100 µM | SN12C > 100 µM | SNB-75 > 100 µM | SW-620 > 100 µM | TK-10 > 100 µM | UACC-257 > 100 µM | UACC-62 > 100 µM

O=C1CSSCC(=O)Nc2ccccc2N1
inactive: A498 > 100 µM | CAKI-1 > 100 µM | HL-60 > 100 µM | Hs-578T > 100 µM | K562 > 100 µM | KM12 > 100 µM | MDA-MB-231 > 100 µM | MDA-MB-435 > 100 µM | Malme-3M > 100 µM | NCI-H460 > 100 µM | OVCAR-8 > 100 µM | RXF 393 > 100 µM | SF-295 > 100 µM | SN12C > 100 µM | SW-620 > 100 µM | TK-10 > 100 µM | UACC-257 > 100 µM | UACC-62 > 100 µM

NC(CCCCP(=O)(O)O)C(=O)O (configuration not stated)
inactive: CAKI-1 14.3 µM | HL-60 > 100 µM | Hs-578T > 100 µM | K562 > 100 µM | KM12 > 100 µM | MDA-MB-231 > 100 µM | MDA-MB-435 > 100 µM | NCI-H460 > 100 µM | OVCAR-8 > 100 µM | RXF 393 > 100 µM | SF-295 > 100 µM | SN12C > 100 µM | SNB-75 > 100 µM | SW-620 > 100 µM | TK-10 > 100 µM | UACC-257 > 100 µM | UACC-62 > 100 µM

COc1ccc2[nH]c3c(C)c4cc[n+](C)cc4c(C)c3c2c1
inactive: HL-60 22 µM | KM12 1.62 µM | MCF7 2.39 µM | NCI-H460 1.64 µM | RXF 393 1.32 µM | UACC-257 12.1 µM | UACC-62 3.48 µM
active: Hs-578T 0.199 µM | Malme-3M 1.06 µM | OVCAR-8 0.305 µM | SF-295 0.332 µM | SN12C 0.116 µM | SNB-75 0.228 µM | SW-620 1.11 µM

CN(C)CCNC(=O)c1cc([N+](=O)[O-])cc2c1Oc1ccccc1O2
inactive: A498 25.1 µM | CAKI-1 15.6 µM | HL-60 18.9 µM | Hs-578T 28.6 µM | K562 23.2 µM | KM12 31 µM | MCF7 23.1 µM | MDA-MB-435 39.7 µM | Malme-3M 21.7 µM | NCI-H460 4.23 µM | OVCAR-8 14.4 µM | RXF 393 18.2 µM | SF-295 22 µM | SN12C 25.7 µM | SNB-75 13 µM | SW-620 11.9 µM | TK-10 23.7 µM | UACC-257 29.4 µM | UACC-62 11.9 µM

CC(C)c1cc2c(c(O)c1O)[C@@]1(C(=O)O)CCCC(C)(C)[C@@H]1CC2 [CARNOSIC ACID]
inactive: CAKI-1 27.8 µM | Hs-578T 24.1 µM | K562 28.4 µM | KM12 14 µM | MCF7 18.9 µM | MDA-MB-231 31.8 µM | MDA-MB-435 16.3 µM | NCI-H460 19.9 µM | OVCAR-8 15.3 µM | RXF 393 19.6 µM | SF-295 22.4 µM | SN12C 24 µM | SNB-75 17.8 µM | SW-620 31.8 µM | TK-10 13.4 µM | UACC-257 14.6 µM | UACC-62 13.9 µM
